Numbers after ± are expanded uncertainties.
Experiments:
[1] = excess molar enthalpy (molar enthalpy of mixing); xn = mol fraction of the nth substance listed; details: 101 kPa, Liquid, Flow calorimetry
[2] = Liquid; for mass density: 298.15 K, 101.33 kPa; for vapor or sublimation pressure: 313.15 K

CCCCCCCl [1-chlorohexane] + CC(=O)N(C)C
excess molar enthalpy [kJ/mol], [1]
Details | 298.15 K | 308.15 K
x2 = 0.059 | – | 0.106 ± 0.006
x2 = 0.064 | 0.105 ± 0.006 | –
x2 = 0.108 | – | 0.204 ± 0.006
x2 = 0.113 | 0.199 ± 0.006 | –
x2 = 0.206 | – | 0.391 ± 0.006
x2 = 0.211 | 0.38 ± 0.006 | –
x2 = 0.304 | – | 0.52 ± 0.006
x2 = 0.309 | 0.499 ± 0.006 | –
x2 = 0.402 | – | 0.602 ± 0.007
x2 = 0.407 | 0.575 ± 0.006 | –
x2 = 0.501 | – | 0.642 ± 0.007
x2 = 0.505 | 0.61 ± 0.006 | –
x2 = 0.6 | – | 0.631 ± 0.007
x2 = 0.603 | 0.598 ± 0.006 | –
x2 = 0.698 | – | 0.569 ± 0.006
x2 = 0.701 | 0.538 ± 0.006 | –
x2 = 0.798 | 0.425 ± 0.006 | 0.453 ± 0.006
x2 = 0.896 | 0.246 ± 0.006 | –
x2 = 0.897 | – | 0.262 ± 0.006
x2 = 0.945 | 0.132 ± 0.006 | –
x2 = 0.947 | – | 0.14 ± 0.007
x2 = 0.967 | – | 0.084 ± 0.007

CCCCCl [1-chlorobutane]
[2]
Details | mass density [kg/m3] | vapor or sublimation pressure [kPa]
– | 880.72 ± 0.22 | 25.72 ± 0.036

CCCCCCCl [1-chlorohexane] + CN(C)C=O
[1]
Details | excess molar enthalpy [kJ/mol]
298.15 K, x2 = 0.058 | 0.161 ± 0.007
298.15 K, x2 = 0.107 | 0.306 ± 0.007
298.15 K, x2 = 0.205 | 0.542 ± 0.007
298.15 K, x2 = 0.303 | 0.694 ± 0.007
298.15 K, x2 = 0.402 | 0.802 ± 0.008
298.15 K, x2 = 0.5 | 0.847 ± 0.008
298.15 K, x2 = 0.598 | 0.822 ± 0.008
298.15 K, x2 = 0.697 | 0.741 ± 0.008
298.15 K, x2 = 0.796 | 0.583 ± 0.008
298.15 K, x2 = 0.894 | 0.336 ± 0.007
298.15 K, x2 = 0.944 | 0.175 ± 0.008
308.15 K, x2 = 0.062 | 0.144 ± 0.008
308.15 K, x2 = 0.111 | 0.316 ± 0.007
308.15 K, x2 = 0.208 | 0.555 ± 0.007
308.15 K, x2 = 0.305 | 0.721 ± 0.008
308.15 K, x2 = 0.403 | 0.826 ± 0.008
308.15 K, x2 = 0.501 | 0.87 ± 0.008
308.15 K, x2 = 0.6 | 0.848 ± 0.008
308.15 K, x2 = 0.699 | 0.761 ± 0.008
308.15 K, x2 = 0.798 | 0.6 ± 0.008
308.15 K, x2 = 0.897 | 0.349 ± 0.008
308.15 K, x2 = 0.947 | 0.183 ± 0.008
308.15 K, x2 = 0.967 | 0.108 ± 0.009

CCCCCCCl [1-chlorohexane]
[2]
Details | mass density [kg/m3] | vapor or sublimation pressure [kPa]
– | 873.21 ± 1 | 2.857 ± 0.021

CCCCCCCCCl [1-chlorooctane]
Details | mass density [kg/m3]
[2] | 868.98 ± 2.1

CC(=O)N(C)C [N,N-dimethylethanamide]
Details | mass density [kg/m3]
[2] | 936.34 ± 0.81

CCCCCCCCCl [1-chlorooctane] + CN(C)C=O
[1]
Details | excess molar enthalpy [kJ/mol]
298.15 K, x2 = 0.064 | 0.174 ± 0.009
298.15 K, x2 = 0.113 | 0.361 ± 0.009
298.15 K, x2 = 0.21 | 0.68 ± 0.009
298.15 K, x2 = 0.308 | 0.886 ± 0.009
298.15 K, x2 = 0.405 | 1.029 ± 0.009
298.15 K, x2 = 0.502 | 1.087 ± 0.009
298.15 K, x2 = 0.6 | 1.071 ± 0.009
298.15 K, x2 = 0.698 | 0.978 ± 0.009
298.15 K, x2 = 0.795 | 0.79 ± 0.009
298.15 K, x2 = 0.893 | 0.49 ± 0.009
298.15 K, x2 = 0.942 | 0.265 ± 0.01
308.15 K, x2 = 0.069 | 0.213 ± 0.009
308.15 K, x2 = 0.117 | 0.385 ± 0.008
308.15 K, x2 = 0.212 | 0.678 ± 0.009
308.15 K, x2 = 0.309 | 0.917 ± 0.009
308.15 K, x2 = 0.406 | 1.064 ± 0.009
308.15 K, x2 = 0.503 | 1.128 ± 0.01
308.15 K, x2 = 0.601 | 1.115 ± 0.01
308.15 K, x2 = 0.699 | 1.018 ± 0.009
308.15 K, x2 = 0.798 | 0.828 ± 0.009
308.15 K, x2 = 0.898 | 0.501 ± 0.009
308.15 K, x2 = 0.948 | 0.28 ± 0.011
308.15 K, x2 = 0.968 | 0.167 ± 0.012

CCCCCl [1-chlorobutane] + CC(=O)N(C)C
[1]
Details | excess molar enthalpy [kJ/mol]
298.15 K, x2 = 0.06 | 0.068 ± 0.005
298.15 K, x2 = 0.111 | 0.141 ± 0.005
298.15 K, x2 = 0.212 | 0.244 ± 0.005
298.15 K, x2 = 0.312 | 0.313 ± 0.005
298.15 K, x2 = 0.412 | 0.354 ± 0.005
298.15 K, x2 = 0.511 | 0.363 ± 0.005
298.15 K, x2 = 0.61 | 0.348 ± 0.005
298.15 K, x2 = 0.708 | 0.305 ± 0.005
298.15 K, x2 = 0.805 | 0.234 ± 0.005
298.15 K, x2 = 0.902 | 0.13 ± 0.005
298.15 K, x2 = 0.95 | 0.069 ± 0.005
308.15 K, x2 = 0.057 | 0.068 ± 0.005
308.15 K, x2 = 0.106 | 0.14 ± 0.005
308.15 K, x2 = 0.206 | 0.246 ± 0.005
308.15 K, x2 = 0.305 | 0.318 ± 0.005
308.15 K, x2 = 0.404 | 0.362 ± 0.005
308.15 K, x2 = 0.503 | 0.375 ± 0.005
308.15 K, x2 = 0.602 | 0.361 ± 0.005
308.15 K, x2 = 0.7 | 0.317 ± 0.005
308.15 K, x2 = 0.799 | 0.243 ± 0.005
308.15 K, x2 = 0.897 | 0.139 ± 0.005
308.15 K, x2 = 0.946 | 0.072 ± 0.005
308.15 K, x2 = 0.966 | 0.041 ± 0.005

CCCCCl [1-chlorobutane] + CN(C)C=O
excess molar enthalpy [kJ/mol], [1]
Details | 298.15 K | 308.15 K
x2 = 0.056 | 0.123 ± 0.006 | –
x2 = 0.058 | – | 0.117 ± 0.006
x2 = 0.106 | 0.239 ± 0.006 | –
x2 = 0.108 | – | 0.231 ± 0.006
x2 = 0.207 | 0.404 ± 0.006 | 0.4 ± 0.006
x2 = 0.306 | – | 0.508 ± 0.006
x2 = 0.308 | 0.509 ± 0.006 | –
x2 = 0.404 | – | 0.568 ± 0.006
x2 = 0.407 | 0.564 ± 0.006 | –
x2 = 0.503 | – | 0.58 ± 0.006
x2 = 0.507 | 0.571 ± 0.006 | –
x2 = 0.602 | – | 0.552 ± 0.006
x2 = 0.606 | 0.54 ± 0.006 | –
x2 = 0.701 | – | 0.481 ± 0.006
x2 = 0.705 | 0.467 ± 0.006 | –
x2 = 0.799 | – | 0.364 ± 0.006
x2 = 0.803 | 0.352 ± 0.006 | –
x2 = 0.898 | – | 0.201 ± 0.006
x2 = 0.901 | 0.192 ± 0.006 | –
x2 = 0.947 | – | 0.103 ± 0.006
x2 = 0.95 | 0.098 ± 0.006 | –
x2 = 0.967 | – | 0.061 ± 0.006

CCCCCCCCCl [1-chlorooctane] + CC(=O)N(C)C
[1]
Details | excess molar enthalpy [kJ/mol]
298.15 K, x2 = 0.067 | 0.136 ± 0.007
298.15 K, x2 = 0.117 | 0.273 ± 0.007
298.15 K, x2 = 0.215 | 0.519 ± 0.007
298.15 K, x2 = 0.313 | 0.676 ± 0.007
298.15 K, x2 = 0.411 | 0.78 ± 0.008
298.15 K, x2 = 0.508 | 0.829 ± 0.008
298.15 K, x2 = 0.606 | 0.821 ± 0.008
298.15 K, x2 = 0.703 | 0.751 ± 0.008
298.15 K, x2 = 0.8 | 0.609 ± 0.008
298.15 K, x2 = 0.897 | 0.37 ± 0.008
298.15 K, x2 = 0.945 | 0.202 ± 0.008
308.15 K, x2 = 0.061 | 0.135 ± 0.007
308.15 K, x2 = 0.11 | 0.274 ± 0.007
308.15 K, x2 = 0.207 | 0.531 ± 0.007
308.15 K, x2 = 0.305 | 0.703 ± 0.008
308.15 K, x2 = 0.403 | 0.817 ± 0.008
308.15 K, x2 = 0.501 | 0.874 ± 0.008
308.15 K, x2 = 0.6 | 0.871 ± 0.008
308.15 K, x2 = 0.699 | 0.8 ± 0.008
308.15 K, x2 = 0.798 | 0.651 ± 0.008
308.15 K, x2 = 0.898 | 0.396 ± 0.008
308.15 K, x2 = 0.948 | 0.216 ± 0.009
308.15 K, x2 = 0.968 | 0.126 ± 0.01

CN(C)C=O [dimethylformamide]
Details | mass density [kg/m3]
[2] | 943.81 ± 0.78
